Literature values as cited in patent US6395294B1, “Method of visualization of the vitreous during vitrectomy” (priority 2000, dated 2002).
Like-named read-outs stand apart in the source and are kept apart here.

How the values were obtained:
[1] = intravitreal injections
[2] = intravenous
[3] = primate eyes
[4] = rabbit eyes
blood retinal barrier = details: intravitreal, experimental
[5] = human eyes
[6] = intravitreal, experimental

## C[C@@H]1C[C@H]2[C@@H]3CCC4=CC(=O)C=C[C@]4(C)[C@@]3(F)[C@@H](O)C[C@]2(C)[C@@]1(O)C(=O)COP(=O)(O)O [dexamethasone sodium phosphate]
Dose of 2 mg
  retinal toxicity: did not show retinal toxicity

## C[C@]12CCC(=O)C=C1CC[C@@H]1[C@@H]2[C@@H](O)C[C@@]2(C)[C@H]1CC[C@]2(O)C(=O)CO [hydrocortisone]
[1]
  aqueous formation rate and outflow facility compared with saline injection: no difference
[1]; both drug and saline groups, because of a decrease in outflow facility
  intraocular pressure: increased intraocular pressure

## C[C@H]1C[C@@H]2[C@H]([C@@H](O)C[C@@]3(C)[C@H]2CC[C@]3(O)C(=O)COC(=O)CCC(=O)[O-])[C@@]2(C)C=CC(=O)C=C12.[Na+] [solumedrol, methylprednisolone sodium succinate]
[2]
  effect on diabetic eyes with rubeosis iridis: quiets diabetic eyes with rubeosis iridis

## CC1(C)O[C@@H]2C[C@H]3[C@@H]4CCC5=CC(=O)C=C[C@]5(C)[C@@]4(F)[C@@H](O)C[C@]3(C)[C@]2(C(=O)CO)O1 [triamcinolone, triamcinolone acetonide]
[3]
  tolerance in the eye: well tolerated
[4]
  tolerance in the eye: well tolerated
Blood retinal barrier
  breakdown of the blood retinal barrier: reduce the breakdown of the blood retinal barrier
[5]
  tolerance in the eye: well tolerated
Vitrectomized and nonvitrectomized eyes, dosage of 2-4 mg
  retinal toxicity: no retinal toxicity
[6]
  angiogenesis: inhibit angiogenesis
  incidence of proliferative vitreoretinopathy and subsequent retinal detachment: reduce the incidence of proliferative vitreoretinopathy and subsequent retinal detachment
  preretinal and optic disc neovascularization: inhibit preretinal and optic disc neovascularization
